# Results taken from US11286268B1, “EIF4E-inhibiting compounds and methods” (EFFECTOR THERAPEUTICS, INC., priority 2019, dated 2022).
# Like-named read-outs stand apart in the source and are kept apart here.
# Target: recombinant eIF4E (Homo sapiens (Human), UniProt P06730)
# Assay: Fluorescence polarization competition assay for eIF4E binding potency
# Description: Compounds were screened for eIF4E binding potency using a fluorescence polarization competition assay. All binding reactions were performed in fluorescence polarization buffer (FPB) containing 20 mM Tris pH 7.5, 100 mM NaCl, 1 mM DTT, and 0.02% Tween-20. Final binding reactions contained 75 nM recombinant eIF4E (Beryllium, custom order), 20 nM EDA-m^7GDP-ATTO-550 (Jena Bioscience, NU-827-550) and varying concentrations of the inhibitory compound of interest. Final DMSO concentration in each reaction was 1%.
# eIF4E protein was pre-incubated with EDA-m^7GDP-ATTO-550 in FPB at 2× concentrations for 5 minutes prior to the addition of compounds. Compounds (100×) were prepared using 3-fold serial dilutions in 100% DMSO, and subsequently diluted 1:50 in FPB to produce 2× stocks. 50 μl of 2× eIF4E/EDA-m^7GDP-ATTO-550 were transferred to the wells of a 96-well half-area black flat bottom polystyrene plate. 50 μl of 2× test compound were added, and binding reactions were allowed to equilibrate for 30 minutes at room temperature while protected from light. The fluorescent polarization signal was detected using a Victor 2 multi-label counter (Perkin Elmer) and the concentration necessary to achieve inhibition of eIF4E/EDA-m^7GDP-ATTO-550 binding by 50% (IC50) was calculated using data from an 8-point compound dilution series.
# In Table 4A, IC50 values of less than 0.05 μM are labelled as “+++”, from 1 to 0.05 μM are labelled as “++”, and greater than 1 μM are labelled as “+”. ND=not determined.
# [1] = fluorescence polarization competition, 75 nM recombinant eIF4E, 20 nM EDA-m7GDP-ATTO-550, IC50 class, read-out: elF4E FP
# [2] = inhibition of eIF4E/EDA-m7GDP-ATTO-550 binding by 50%, Table 4B calculated values, read-out: IC50
# recombinant eIF4E, sequence (P06730 whole entry): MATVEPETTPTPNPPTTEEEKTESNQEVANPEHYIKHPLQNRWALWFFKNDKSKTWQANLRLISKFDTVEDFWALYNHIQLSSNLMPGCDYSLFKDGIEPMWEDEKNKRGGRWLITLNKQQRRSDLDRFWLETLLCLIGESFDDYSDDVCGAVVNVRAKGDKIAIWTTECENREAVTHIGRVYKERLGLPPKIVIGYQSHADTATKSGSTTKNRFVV
Structure (SMILES),IC50 [1] [nM],IC50 [2] [nM]
O=C(O)c1cccc(-c2cc(Cl)ccc2OCCn2cnc3ccccc3c2=O)c1 [compound 11],> 1000,6850
O=C(O)c1cccc(-c2cc(Cl)ccc2OCCn2cnc3ccncc3c2=O)c1 [compound 12],> 1000,2390
O=C(O)c1cccc(-c2cc(Cl)ccc2OCCn2cnc3ccncc3c2=O)c1 [compound 13],> 1000,1070
O=C(O)c1cccc(-c2cc(Cl)ccc2OCCn2ccc3ncncc3c2=O)c1 [compound 14],> 1000,> 3000
O=C(O)c1cccc(-c2cc(Cl)ccc2OCCn2ccc3nnccc3c2=O)c1 [compound 15],> 1000,1740
O=C(O)c1cccc(-c2cc(Cl)ccc2OCCn2cnc3ncncc3c2=O)c1 [compound 17],50 to 1000,721
O=C(O)c1cccc(-c2cc(Cl)ccc2OCCn2cnc3nnccc3c2=O)c1 [compound 18],50 to 1000,832
O=C(O)c1cccc(-c2cc(Cl)ccc2OCCn2cnc3nccnc3c2=O)c1 [compound 19],50 to 1000,838
O=C(O)c1cccc(-c2cc(Cl)ccc2OCCn2cnc3cccnc3c2=O)c1 [compound 21],50 to 1000,575
Cc1nc2c(F)cc(C(F)F)c(C#N)c2c(=O)n1CCOc1ccc(Cl)cc1-c1ccnc2c(C(=O)O)csc12 [compound 22],< 50,24.9
CC#Cc1c(C(=O)O)cccc1-c1cc(Cl)ccc1OCCn1cnc2cnc(C#N)cc2c1=O [compound 24],50 to 1000,184
N#Cc1cc2c(=O)n(Cc3cc4cc(Cl)cc(-c5cccc(C(=O)O)c5)c4o3)cnc2cn1 [compound 25],> 1000,12600
O=C(O)c1cccc(-c2cc(Cl)ccc2OCCn2cnc3cnc(Sc4ccccc4)cc3c2=O)c1 [compound 26],50 to 1000,919
N#Cc1ccc2ncn(CCOc3ccc(Cl)cc3-c3cccc(C(=O)O)c3)c(=O)c2c1C#N [compound 27],50 to 1000,149
N#Cc1c(C(F)F)ccc2ncn(CCOc3ccc(Cl)cc3-c3cccc(C(=O)O)c3)c(=O)c12 [compound 28],50 to 1000,61.6
N#Cc1cc2c(=O)n(CCOc3ccc(Cl)cc3-c3ccnc(C(=O)O)c3)cnc2cn1 [compound 29],50 to 1000,211
N#Cc1cc2c(=O)n(CCOc3ccc(Cl)cc3-c3ccnc4c(C(=O)O)csc34)cnc2cn1 [compound 30],50 to 1000,164
CNS(=O)(=O)c1cc2c(=O)n(CCOc3ccc(Cl)cc3-c3cccc(C(=O)O)c3)cnc2cn1 [compound 32],50 to 1000,190
Cc1nc2c(C(F)F)nc(C#N)cc2c(=O)n1CCOc1ccc(Cl)cc1-c1cccc(C(=O)O)c1 [compound 33],50 to 1000,203
N#Cc1cncc2ncn(CCOc3ccc(Cl)cc3-c3cccc(C(=O)O)c3)c(=O)c12 [compound 34],50 to 1000,88.5
Cc1nc2cncc(C#N)c2c(=O)n1CCOc1ccc(Cl)cc1-c1ccnc(C(=O)O)c1 [compound 35],< 50,44.3
Cc1nc2c(C(F)F)ccc(C#N)c2c(=O)n1CCOc1ccc(Cl)cc1-c1cccc(C(=O)O)c1 [compound 37],< 50,39.6
Cc1nc2c(C(F)(F)F)ncc(C#N)c2c(=O)n1CCOc1ccc(Cl)cc1-c1cccc(C(=O)O)c1 [compound 38],50 to 1000,55.5
N#Cc1cncc2nc(C(F)F)n(CCOc3ccc(Cl)cc3-c3ccnc4c(C(=O)O)csc34)c(=O)c12 [compound 39],50 to 1000,116
N#Cc1cc2c(=O)n(C/C=C/c3ccc(Cl)cc3-c3cccc(C(=O)O)c3)cnc2cn1 [compound 41],> 1000,3440
N#Cc1cc2c(=O)n(CCCc3ccc(Cl)cc3-c3cccc(C(=O)O)c3)cnc2cn1 [compound 42],> 1000,19800
N#Cc1cc2c(=O)n(C[C@@H]3C[C@H]3c3ccc(Cl)cc3-c3cccc(C(=O)O)c3)cnc2cn1 [compound 43],> 1000,> 10000

# The remaining lines, values ahead:
IC50 [1] [nM],IC50 [2] [nM],Structure (SMILES)
50 to 1000,73.1,Cc1nc2cncc(C#N)c2c(=O)n1C/C=C/c1ccc(Cl)cc1-c1cccc(C(=O)O)c1 [compound 44]
> 1000,2890,Cc1ccc(C(=O)O)c2nccc(-c3cc(Cl)ccc3OCCn3cnc4cncc(C#N)c4c3=O)c12 [compound 45]
50 to 1000,67.2,N#Cc1cc(C(F)(F)F)cc2c(Cl)c(Cl)n(CCOc3ccc(Cl)cc3-c3ccnc4c(C(=O)O)csc34)c(=O)c12 [compound 46]
50 to 1000,631,N#Cc1cncc2nc(CCC(=O)O)n(CCOc3ccc(Cl)cc3-c3ccccc3)c(=O)c12 [compound 48]
< 50,21.3,Cc1nc2cc(C(F)(F)F)cc(C#N)c2c(=O)n1CCOc1ccc(Cl)cc1-c1cccc(C(=O)O)c1 [compound 51]
> 1000,> 3000,N#Cc1cc2c(=O)n(CCOc3ccc(Cl)cc3-c3ncc(C(=O)O)s3)cnc2cn1 [compound 52]
50 to 1000,931,N#Cc1cc2c(=O)n(CCOc3ccc(Cl)cc3-c3ccc(C(=O)O)s3)cnc2cn1 [compound 53]
> 1000,2280,N#Cc1cc2c(=O)n(CCOc3ccc(Cl)cc3-c3cnc(C(=O)O)s3)cnc2cn1 [compound 54]
< 50,21.6,C#Cc1c(C(=O)O)cccc1-c1cc(Cl)ccc1OCCn1c(C)nc2ccc(C(F)F)c(C#N)c2c1=O [compound 55]
< 50,12.8,C#Cc1c(-c2cc(Cl)ccc2OCCn2c(C)nc3ccc(C(F)F)c(C#N)c3c2=O)ccnc1C(=O)O [compound 57]
50 to 1000,50.2,C#Cc1c(-c2cc(Cl)ccc2OCCn2c(C)nc3cc(C(F)(F)F)cc(C#N)c3c2=O)ccnc1C(=O)O [compound 58]
< 50,21.5,Cc1nc2cc(C(F)(F)F)c(C(F)F)c(C#N)c2c(=O)n1CCOc1ccc(Cl)cc1-c1cccc(C(=O)O)c1 [compound 59]
< 50,,Cc1nc2cc(C(F)(F)F)cc(C#N)c2c(=O)n1CCOc1ccc(Cl)cc1-c1ccnc(C(=O)O)c1 [compound 60]
< 50,26.5,Cc1nc2cc(C(F)(F)F)cc(C#N)c2c(=O)n1CCOc1ccc(Cl)cc1-c1ccnc2c(C(=O)O)csc12 [compound 61]
< 50,24.9,Cc1nc2ccc(C(F)F)c(C#N)c2c(=O)n1CCOc1ccc(Cl)cc1-c1cccc(C(=O)O)c1 [compound 62]
< 50,25.8,Cc1nc2cc(C#N)c(C(F)F)c(C#N)c2c(=O)n1CCOc1ccc(Cl)cc1-c1cccc(C(=O)O)c1 [compound 63]
50 to 1000,62.5,Cc1nc2cc(C(F)F)c(C(F)F)c(C#N)c2c(=O)n1CCOc1ccc(Cl)cc1-c1cccc(C(=O)O)c1 [compound 64]
< 50,24.1,N#Cc1cc(C(F)(F)F)cc2nc(C(F)F)n(CCOc3ccc(Cl)cc3-c3ccnc4c(C(=O)O)csc34)c(=O)c12 [compound 65]
50 to 1000,187,N#Cc1cc2c(=O)n(CCOc3ccc(Cl)cc3-c3cccc(C(=O)O)c3)cnc2cn1 [compound 66]
